Legend:
Assay in all cases: Steady-state kinetic constants, bioluminescence activity
[1] = biological target: Photinus pyralis luciferase, recombinant wild type (PpyWT), SEQ ID NO: 4, with N-terminal peptide GPLGS (Photinus pyralis, UniProt P08659); format: biochemical
[2] = biological target: T1, Native Ppy, native firefly luciferase from Photinus pyralis (Photinus pyralis, UniProt P08659); format: biochemical
T1 construct: wild type, no tag

[3] = biological target: T2, 6×His-PpyWT, Photinus pyralis luciferase PpyWT with N-terminal peptide MRGSHHHHHHGS (SEQ ID NO: 27) in place of GPLGS (Photinus pyralis, UniProt P08659); format: biochemical
T2 construct: pQE-30, E. coli; Ni-NTA purified

[4] = system: LitPpy, chimeric luciferase of LitWT residues 1-439 and PpyWT residues 440-550; format: biochemical, Luciola italica / Photinus pyralis
Experimental: (§1) Reactions were initiated by injection of solutions of the substrate being maintained at saturating concentration. Kinetic constants were determined using a nonlinear least squares method of the Enzyme Kinetics Pro software (SynTex), which fits data from the Michalis-Menten equation to a rectangular hyperbola. The corresponding kcat values were obtained by dividing the Vmax values by the amount (μmol) of each luciferase in the assay mixtures.

[5] = system: Ppy GR-TSLit, chimeric luciferase of Ppy GR-TS N-domain and LitWT C-domain; format: biochemical, Photinus pyralis / Luciola italica
Experimental: as §1

[6] = system: Ppy RE-TSLit, chimeric luciferase of Ppy RE-TS N-domain and LitWT C-domain; format: biochemical, Photinus pyralis / Luciola italica
Experimental: as §1

[7] = system: PpyLit (chimeric luciferase, SEQ ID NO: 8) variant I351V/E354K/F465R; format: biochemical, Photinus pyralis / Luciola italica
Experimental: as §1

[8] = system: PpyLit (chimeric luciferase, SEQ ID NO: 8) variant I351V/E354K; format: biochemical, Photinus pyralis / Luciola italica
Experimental: as §1

[9] = system: PpyLit (chimeric luciferase, SEQ ID NO: 8) variant S284T/F465R; format: biochemical, Photinus pyralis / Luciola italica
Experimental: as §1

[10] = system: PpyLit (chimeric luciferase, SEQ ID NO: 8) variant S284T/I351V/E354K; format: biochemical, Photinus pyralis / Luciola italica
Experimental: as §1

[11] = system: PpyLit (chimeric luciferase, SEQ ID NO: 8) variant S284T; format: biochemical, Photinus pyralis / Luciola italica
Experimental: as §1

[12] = biological target: T3, Photinus pyralis luciferase PpyWT variant Ppy5, Ile457Val/Ala482Gly/His489Lys/Ala503Asn/Lys543Gln, SEQ ID NO: 10 (Photinus pyralis, UniProt P08659, A482G/A503N/H489K/I457V/K543Q); format: biochemical
T3 construct: pGEX-6P-2 GST fusion (tag cleaved), E. coli BL21

[13] = biological target: T4, Photinus pyralis luciferase PpyWT variant Ppy14, Ala450Pro/Ile457Val/Leu472Val/Asp475Ser/Asp476Glu/Ala482Gly/Leu487Met/His489Lys/Ala503Asn/Thr507Val/Thr508Asn/A (Photinus pyralis, UniProt P08659, A450P/A482G/A503N/A509H/D475S/D476E/H489K/I457V/K511R/L472V/L487M/T507V/T508N/V517R); format: biochemical
T4 construct: N-terminal GPLGS; pGEX-6P-2 GST fusion (tag cleaved), E. coli BL21

[14] = biological target: T5, Photinus pyralis luciferase PpyWT variant Ppy19, Ppy14 plus Leu530Ile/Lys534Val/Ile540Lys/Ala542Pro/Lys543Gln (Photinus pyralis, UniProt P08659, A450P/A482G/A503N/A509H/A542P/D475S/D476E/H489K/I457V/I540K/K511R/K534V/K543Q/L472V/L487M/L530I/T507V/T508N/V517R); format: biochemical
T5 construct: N-terminal GPLGS; pGEX-6P-2 GST fusion (tag cleaved), E. coli BL21

[15] = biological target: T6, Photinus pyralis luciferase variant Ppy WT-TS5/I351V, PpyWT-TS (SEQ ID NO: 22) with Ile457Val/Ala482Gly/His489Lys/Ala503Asn/Lys543Gln/Ile351Val, SEQ ID NO: 12 (Photinus pyralis, UniProt P08659, A215L/A482G/A503N/E354K/F295L/H489K/I232A/I351V/I457V/K543Q/T214A); format: biochemical
T6 construct: N-terminal GPLGS; pGEX-6P-2 GST fusion (tag cleaved), E. coli BL21

[16] = biological target: T7, Photinus pyralis luciferase PpyWT variant Ppy S284T (Ser284Thr) (Photinus pyralis, UniProt P08659, S284T); format: biochemical
T7 construct: pGEX-6P-2 GST fusion (tag cleaved), E. coli BL21

[17] = biological target: T8, Photinus pyralis luciferase variant Ppy RE-TS, SEQ ID NO: 24 (Photinus pyralis, UniProt P08659, A215L/E354K/F295L/I232A/S284T/T214A); format: biochemical
T8 construct: N-terminal GPLGS; pGEX-6P-2 GST fusion (tag cleaved), E. coli BL21

[18] = biological target: LitWT, recombinant Luciola italica luciferase containing Lys547Gly/Met548Gly, SEQ ID NO: 6, with N-terminal peptide GPLGS (Luciola italica, UniProt Q1AG35, K547G/M548G); conditions: kcat divided by Mg-ATP Km
[19] = pH 7.8, LH2 saturating, read-out: Km Mg-ATP
[20] = read-out: Km Mg-ATP, pH 7.8, LH2 saturating

T6 sequence (P08659 whole entry T214A/A215L/I232A/F295L/I351V/E354K/I457V/A482G/H489K/A503N/K543Q, the tested form may be a part): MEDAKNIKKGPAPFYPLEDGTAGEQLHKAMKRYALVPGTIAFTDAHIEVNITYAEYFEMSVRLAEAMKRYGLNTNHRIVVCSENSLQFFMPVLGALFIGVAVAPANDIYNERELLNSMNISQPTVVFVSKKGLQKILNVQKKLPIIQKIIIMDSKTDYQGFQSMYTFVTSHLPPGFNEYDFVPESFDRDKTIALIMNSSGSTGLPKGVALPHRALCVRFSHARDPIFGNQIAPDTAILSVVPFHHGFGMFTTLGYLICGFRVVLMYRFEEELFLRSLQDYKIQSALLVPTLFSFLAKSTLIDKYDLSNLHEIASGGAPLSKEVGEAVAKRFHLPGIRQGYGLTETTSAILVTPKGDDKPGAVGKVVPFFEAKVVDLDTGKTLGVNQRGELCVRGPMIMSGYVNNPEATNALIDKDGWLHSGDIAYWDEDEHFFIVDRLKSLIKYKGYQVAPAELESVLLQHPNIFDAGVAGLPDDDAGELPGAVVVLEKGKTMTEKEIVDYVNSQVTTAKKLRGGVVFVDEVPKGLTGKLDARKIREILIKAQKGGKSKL
T3 sequence (P08659 whole entry I457V/A482G/H489K/A503N/K543Q, the tested form may be a part): as the sequence (P08659 whole entry T214A/A215L/I232A/F295L/I351V/E354K/I457V/A482G/H489K/A503N/K543Q, the tested form may be a part) above, with A214T, L215A, A232I, L295F, V351I, K354E counted along it
T8 sequence (P08659 whole entry T214A/A215L/I232A/S284T/F295L/E354K, the tested form may be a part): as the sequence (P08659 whole entry T214A/A215L/I232A/F295L/I351V/E354K/I457V/A482G/H489K/A503N/K543Q, the tested form may be a part) above, with S284T, V351I, V457I, G482A, K489H, N503A, Q543K counted along it
T7 sequence (P08659 whole entry S284T, the tested form may be a part): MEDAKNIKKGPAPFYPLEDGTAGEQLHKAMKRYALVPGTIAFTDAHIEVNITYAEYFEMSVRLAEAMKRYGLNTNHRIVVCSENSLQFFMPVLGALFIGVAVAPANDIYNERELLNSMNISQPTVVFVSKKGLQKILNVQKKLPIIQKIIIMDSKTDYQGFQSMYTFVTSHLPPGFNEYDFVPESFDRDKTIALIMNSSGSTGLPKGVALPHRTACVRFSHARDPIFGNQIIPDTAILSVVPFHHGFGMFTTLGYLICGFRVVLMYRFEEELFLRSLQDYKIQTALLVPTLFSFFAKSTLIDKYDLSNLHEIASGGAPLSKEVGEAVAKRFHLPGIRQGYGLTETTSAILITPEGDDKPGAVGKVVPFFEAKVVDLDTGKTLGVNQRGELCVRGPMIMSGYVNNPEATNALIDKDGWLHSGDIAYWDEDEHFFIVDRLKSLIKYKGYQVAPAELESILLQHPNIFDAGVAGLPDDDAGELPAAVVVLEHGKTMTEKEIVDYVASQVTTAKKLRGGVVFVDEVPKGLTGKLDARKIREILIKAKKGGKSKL
T1 sequence (P08659 whole entry): as the sequence (P08659 whole entry S284T, the tested form may be a part) above, with T284S counted along it
Photinus pyralis luciferase, recombinant wild type (PpyWT), SEQ ID NO: 4, with N-terminal peptide GPLGS, sequence (P08659 whole entry): as the sequence (P08659 whole entry S284T, the tested form may be a part) above, with T284S counted along it
T2 sequence (P08659 whole entry): as the sequence (P08659 whole entry S284T, the tested form may be a part) above, with T284S counted along it
T4 sequence (P08659 whole entry A450P/I457V/L472V/D475S/D476E/A482G/L487M/H489K/A503N/T507V/T508N/A509H/K511R/V517R, the tested form may be a part): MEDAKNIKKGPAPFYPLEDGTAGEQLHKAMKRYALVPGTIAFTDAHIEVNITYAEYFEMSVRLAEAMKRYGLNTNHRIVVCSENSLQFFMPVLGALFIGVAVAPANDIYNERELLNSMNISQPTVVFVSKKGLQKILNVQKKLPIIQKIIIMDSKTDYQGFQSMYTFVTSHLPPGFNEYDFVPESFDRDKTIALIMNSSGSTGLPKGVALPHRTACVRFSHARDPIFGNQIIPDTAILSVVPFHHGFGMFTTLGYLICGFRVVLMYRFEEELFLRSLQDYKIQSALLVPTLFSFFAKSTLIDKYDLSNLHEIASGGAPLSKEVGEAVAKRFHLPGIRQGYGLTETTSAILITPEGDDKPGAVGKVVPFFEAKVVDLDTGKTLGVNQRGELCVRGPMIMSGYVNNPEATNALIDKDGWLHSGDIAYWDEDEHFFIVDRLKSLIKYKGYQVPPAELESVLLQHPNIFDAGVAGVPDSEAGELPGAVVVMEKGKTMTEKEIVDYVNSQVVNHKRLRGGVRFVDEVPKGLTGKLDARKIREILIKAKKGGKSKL
LitWT, recombinant Luciola italica luciferase containing Lys547Gly/Met548Gly, SEQ ID NO: 6, with N-terminal peptide GPLGS, sequence (Q1AG35 1-548 K547G/M548G): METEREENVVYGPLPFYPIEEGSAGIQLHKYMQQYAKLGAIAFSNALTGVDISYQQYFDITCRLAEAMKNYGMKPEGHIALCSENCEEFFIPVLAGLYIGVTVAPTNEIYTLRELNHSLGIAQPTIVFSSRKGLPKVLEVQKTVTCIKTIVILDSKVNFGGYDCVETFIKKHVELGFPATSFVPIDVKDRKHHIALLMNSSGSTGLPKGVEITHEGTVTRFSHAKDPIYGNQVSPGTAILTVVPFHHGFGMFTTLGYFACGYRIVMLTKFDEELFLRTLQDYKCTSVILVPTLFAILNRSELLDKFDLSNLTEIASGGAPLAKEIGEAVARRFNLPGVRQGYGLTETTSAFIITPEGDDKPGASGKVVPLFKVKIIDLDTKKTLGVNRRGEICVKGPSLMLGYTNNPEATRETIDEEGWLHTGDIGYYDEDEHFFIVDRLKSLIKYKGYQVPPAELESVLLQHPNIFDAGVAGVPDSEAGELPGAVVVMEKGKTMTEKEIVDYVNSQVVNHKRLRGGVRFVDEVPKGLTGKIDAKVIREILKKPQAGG

Compound: Nc1ncnc2c1ncn2[C@@H]1O[C@H](COP(=O)(O)OP(=O)(O)OP(=O)(O)O)[C@@H](O)[C@H]1O [Mg-ATP]
- kcat/Km ([1]; kcat divided by Mg-ATP Km): 2090 ± 100 M⁻¹ s⁻¹
- Km [1, 19]: 86 ± 7 µM
- kcat/Km ([2]; kcat divided by Mg-ATP Km): 1890 ± 130 M⁻¹ s⁻¹
- Km [2, 19]: 90 ± 10 µM
- kcat/Km ([3]; kcat divided by Mg-ATP Km): 1930 ± 110 M⁻¹ s⁻¹
- Km [3, 19]: 93 ± 9 µM
- kcat/Km ([4]; kcat divided by Mg-ATP Km): 1180 ± 60 M⁻¹ s⁻¹
- Km [4, 19]: 188 ± 10 µM
- kcat/Km ([5]; kcat divided by Mg-ATP Km): 170 ± 70 M⁻¹ s⁻¹
- Km [5, 19]: 466 ± 36 µM
- kcat/Km ([6]; kcat divided by Mg-ATP Km): 1130 ± 120 M⁻¹ s⁻¹
- Km [6, 19]: 79 ± 9 µM
- kcat/Km ([7]; kcat divided by Mg-ATP Km): 3090 ± 90 M⁻¹ s⁻¹
- Km [7, 19]: 94 ± 8 µM
- kcat/Km ([8]; kcat divided by Mg-ATP Km): 3750 ± 150 M⁻¹ s⁻¹
- Km [8, 19]: 80 ± 10 µM
- kcat/Km ([9]; kcat divided by Mg-ATP Km): 1670 ± 140 M⁻¹ s⁻¹
- Km [9, 19]: 60 ± 6 µM
- kcat/Km ([10]; kcat divided by Mg-ATP Km): 1360 ± 140 M⁻¹ s⁻¹
- Km [10, 19]: 95 ± 9 µM
- kcat/Km ([11]; kcat divided by Mg-ATP Km): 1120 ± 150 M⁻¹ s⁻¹
- Km [11, 19]: 89 ± 10 µM
- kcat/Km ([12]; kcat divided by Mg-ATP Km): 4310 ± 120 M⁻¹ s⁻¹
- Km [12, 20]: 72 ± 7 µM
- kcat/Km ([13]; kcat divided by Mg-ATP Km): 6340 ± 110 M⁻¹ s⁻¹
- Km [13, 20]: 41 ± 3 µM
- kcat/Km ([14]; kcat divided by Mg-ATP Km): 5990 ± 110 M⁻¹ s⁻¹
- Km [14, 20]: 50 ± 5 µM
- kcat/Km ([15]; kcat divided by Mg-ATP Km): 3160 ± 70 M⁻¹ s⁻¹
- Km [15, 20]: 79 ± 5 µM
- kcat/Km ([16]; kcat divided by Mg-ATP Km): 630 ± 140 M⁻¹ s⁻¹
- Km [16, 20]: 79 ± 9 µM
- kcat/Km ([17]; kcat divided by Mg-ATP Km): 820 ± 90 M⁻¹ s⁻¹
- Km [17, 20]: 68 ± 5 µM
- kcat/Km [18]: 780 ± 110 M⁻¹ s⁻¹

Reference: patent US20150152395A1, “CHIMERIC LUCIFERASES” (Connecticut College, priority 2012, published 2015)
